Assay results published in patent US20110217713A1 (On-Q-ity, priority 2010, published 2011).

System: non-small cell lung cancer patient specimens (adenocarcinomas and squamous cell carcinoma)
Experiment: International Adjuvant Lung Trial (IALT): cisplatin-based therapy vs observation, DFS/OS against IHC DNA repair biomarker Q-scores (Cox PH models)
Format: in vivo, human
Protocol: An immunohistochemical evaluation of DNA Repair Proteins was conducted on a large international patient specimen collection from the IALT trial (International Adjuvant Lung Trial). This clinical trial originally comprised approximately 1867 non-small cell lung cancer patient specimens (adenocarcinomas and squamous cell carcinoma) and was designed to test clinical parameters for patients receiving either cisplatin-based therapy or those considered observation. One problem with testing of biomarkers in general from clinical trials is that the patient population treatments are generally a mixture of several different treatments and combinations of such and so results may be confounded by interactions of various treatments. However, the IALT trial represents pristine treatment arms of cisplatin and observation and thus is relatively free of confounding affects due to treatment variation.
International Adjuvant Lung Cancer Trial (IALT) NSCLC FFPE patient specimens constructed on TMAs (13 total) were stained by IHC for DNA repair biomarkers: ATM, MSH2, ERCC1, p53, pMK2, PARP1, BRCA1, XPF. An average of 603 patients were analyzed for each biomarker. Tumor biomarker nuclear or cytoplasmic levels were determined using digital image user defined macros. Scores were generated based on weighted intensity and quantity of stained cells. In reference to accompanying diagrams in the Powerpoint files, please note that a wide dynamic range achieved during assay development and optimization in commercially available TMAs is translationally achieved when patients comprising this study population are stained, annotated for tumor region and scored by user-defined macros.
Previous studies have utilized standard pathologist-based scoring, thus we chose to optimize the IHC-based assessment of biomarker levels using digital pathology and weighted scoring. This endeavor is undertaken so that for a given population a continuum of scores (herein referred to as Q-scores) with a broad dynamic range may be generated by user defined macros. Here, scoring of individual tumor cells comprising each patient specimen is generated and then patients assembled into a population continuum of scores against which finer cut-points may tested and established rather than crude binning methods as employed in previous studies.
Q-score=10*(% of 10+cells)+9*(% of 9+cells)+8*(% of 8+cells)+7*(% of 7+cells) . . . 1*(% of 1+cells)
Cox PH models adjusted for relevant clinical and stratification variables were used in the univariate analyses of Disease-Free Survival (DFS) and Overall Survival (OS). Initial analyses were conducted using biomarker Q scores as continuous variables against clinical endpoint metrics.

[1] = ATM model, ADENOCARCINOMA, With adjustment variables
[2] = ATM model, ADENOCARCINOMA, With selected variables
[3] = ATM model, ADENOCARCINOMA, Without variables
[4] = ATM model, SQUAMOUS CELLS, With adjustment variables
[5] = ATM model, SQUAMOUS CELLS, With selected variables
[6] = ATM model, SQUAMOUS CELLS, Without variables
[7] = BRCA1 model, ADENOCARCINOMA, With adjustment variables
[8] = BRCA1 model, ADENOCARCINOMA, With selected variables
[9] = BRCA1 model, ADENOCARCINOMA, Without variables
[10] = BRCA1 model, SQUAMOUS CELLS, With adjustment variables
[11] = BRCA1 model, SQUAMOUS CELLS, With selected variables
[12] = BRCA1 model, SQUAMOUS CELLS, Without variables
[13] = Cox PH model with PMK2MC, with adjustment variables, histology heading not shown
[14] = Disease Free Survival, MEAN Q SCORE OF PMK2 CYTOPLASM DIVIDED BY NUCLEAR, Adenocarcinoma, With selected variables
[15] = Disease Free Survival, MEAN Q SCORE OF PMK2 CYTOPLASM DIVIDED BY NUCLEAR, Adenocarcinoma, Without variables
[16] = Disease Free Survival, MEAN Q SCORE PMK2 CYTOPLASM, Adenocarcinoma, With adjustment variables
[17] = Disease Free Survival, MEAN Q SCORE PMK2 CYTOPLASM, Adenocarcinoma, With selected variables
[18] = Disease Free Survival, MEAN Q SCORE PMK2 CYTOPLASM, Adenocarcinoma, Without variables
[19] = Disease Free Survival, MEAN Q SCORE PMK2 CYTOPLASM, Squamous Cells, With adjustment variables
[20] = Disease Free Survival, MEAN Q SCORE PMK2 CYTOPLASM, Squamous Cells, With selected variables
[21] = Disease Free Survival, MEAN Q SCORE PMK2 CYTOPLASM, Squamous Cells, Without variables
[22] = Disease Free Survival, MEAN Q SCORE PMK2 NUCLEAR, Adenocarcinoma, With adjustment variables
[23] = Disease Free Survival, MEAN Q SCORE PMK2 NUCLEAR, Adenocarcinoma, With selected variables
[24] = Disease Free Survival, MEAN Q SCORE PMK2 NUCLEAR, Adenocarcinoma, Without variables
[25] = Disease Free Survival, MEAN Q SCORE PMK2 NUCLEAR, Squamous Cells, With adjustment variables
[26] = Disease Free Survival, MEAN Q SCORE PMK2 NUCLEAR, Squamous Cells, With selected variables
[27] = Disease Free Survival, MEAN Q SCORE PMK2 NUCLEAR, Squamous Cells, Without variables
[28] = Disease Free Survival, MEAN Q SCORE SUM OF PMK2 CYTOPLASM & NUCLEAR, Adenocarcinoma, With adjustment variables
[29] = Disease Free Survival, MEAN Q SCORE SUM OF PMK2 CYTOPLASM & NUCLEAR, Adenocarcinoma, With selected variables
[30] = Disease Free Survival, MEAN Q SCORE SUM OF PMK2 CYTOPLASM & NUCLEAR, Adenocarcinoma, Without variables
[31] = Disease Free Survival, MEAN Q SCORE SUM OF PMK2 CYTOPLASM & NUCLEAR, Squamous Cells, With adjustment variables
[32] = Disease Free Survival, MEAN Q SCORE SUM OF PMK2 CYTOPLASM & NUCLEAR, Squamous Cells, With selected variables
[33] = Disease Free Survival, MEAN Q SCORE SUM OF PMK2 CYTOPLASM & NUCLEAR, Squamous Cells, Without variables
[34] = ERCC1 model, ADENOCARCINOMA, With adjustment variables

Compound: N.N.[Cl][Pt][Cl] [cisplatin]
- HazardRatio, ATM_Treatment [1]: 0.941
- HazardRatio, Treatment [1]: 1.033
- HazardRatio, ATM_Treatment [2]: 0.993
- HazardRatio, Treatment [2]: 1.004
- HazardRatio, ATM_Treatment [3]: 0.972
- HazardRatio, Treatment [3]: 1.142
- HazardRatio, ATM_Treatment [4]: 1.172
- HazardRatio, Treatment [4]: 0.625
- HazardRatio, ATM_Treatment [5]: 1.172
- HazardRatio, Treatment [5]: 0.640
- HazardRatio, ATM_Treatment [6]: 1.148
- HazardRatio, Treatment [6]: 0.659
- HazardRatio, BRCA1_Treatment [7]: 1.022
- HazardRatio, Treatment [7]: 0.895
- HazardRatio, BRCA1_Treatment [8]: 1.027
- HazardRatio, Treatment [8]: 0.954
- HazardRatio, BRCA1_Treatment [9]: 0.844
- HazardRatio, Treatment [9]: 1.391
- HazardRatio, BRCA1_Treatment [10]: 1.043
- HazardRatio, Treatment [10]: 0.819
- HazardRatio, BRCA1_Treatment [11]: 1.048
- HazardRatio, Treatment [11]: 0.831
- HazardRatio, BRCA1_Treatment [12]: 1.028
- HazardRatio, Treatment [12]: 0.852
- HazardRatio, PMK2MC_Treatment interaction (Disease Free Survival) [13]: 1.244
- HazardRatio, Treatment (Disease Free Survival) [13]: 0.787
- HazardRatio, Treatment (Disease Free Survival, MEAN Q SCORE OF PMK2 CYTOPLASM DIVIDED BY NUCLEAR, Adenocarcinoma, With adjustment variables): 0.790
- HazardRatio, PMK2MCNp_Treatment [14]: 31E22
- HazardRatio, Treatment [14]: 0.827
- HazardRatio, PMK2MCNp_Treatment [15]: 263.6
- HazardRatio, Treatment [15]: 0.997
- HazardRatio, Treatment (Disease Free Survival, MEAN Q SCORE OF PMK2 CYTOPLASM DIVIDED BY NUCLEAR, Squamous Cells, With adjustment variables): 0.643
- HazardRatio, Treatment (Disease Free Survival, MEAN Q SCORE OF PMK2 CYTOPLASM DIVIDED BY NUCLEAR, Squamous Cells, With selected variables): 0.681
- HazardRatio, Treatment (Disease Free Survival, MEAN Q SCORE OF PMK2 CYTOPLASM DIVIDED BY NUCLEAR, Squamous Cells, Without variables): 0.755
- HazardRatio, PMK2MC_Treatment [16]: 1.163
- HazardRatio, Treatment [16]: 0.862
- HazardRatio, PMK2MC_Treatment [17]: 1.096
- HazardRatio, Treatment [17]: 0.874
- HazardRatio, PMK2MC_Treatment [18]: 0.647
- HazardRatio, Treatment [18]: 1.173
- HazardRatio, PMK2MC_Treatment [19]: 1.206
- HazardRatio, Treatment [19]: 0.804
- HazardRatio, PMK2MC_Treatment [20]: 1.203
- HazardRatio, Treatment [20]: 0.827
- HazardRatio, PMK2MC_Treatment [21]: 1.134
- HazardRatio, Treatment [21]: 0.846
- HazardRatio, PMK2MN_Treatment [22]: 1.094
- HazardRatio, Treatment [22]: 0.815
- HazardRatio, PMK2MN_Treatment [23]: 1.087
- HazardRatio, Treatment [23]: 0.816
- HazardRatio, PMK2MN_Treatment [24]: 0.911
- HazardRatio, Treatment [24]: 1.145
- HazardRatio, PMK2MN_Treatment [25]: 1.126
- HazardRatio, Treatment [25]: 0.758
- HazardRatio, PMK2MN_Treatment [26]: 1.129
- HazardRatio, Treatment [26]: 0.775
- HazardRatio, PMK2MN_Treatment [27]: 1.107
- HazardRatio, Treatment [27]: 0.789
- HazardRatio, PMK2MCNs_Treatment [28]: 1.064
- HazardRatio, Treatment [28]: 0.824
- HazardRatio, PMK2MCNs_Treatment [29]: 1.056
- HazardRatio, Treatment [29]: 0.829
- HazardRatio, PMK2MCNs_Treatment [30]: 0.915
- HazardRatio, Treatment [30]: 1.174
- HazardRatio, PMK2MCNs_Treatment [31]: 1.078
- HazardRatio, Treatment [31]: 0.772
- HazardRatio, PMK2MCNs_Treatment [32]: 1.079
- HazardRatio, Treatment [32]: 0.791
- HazardRatio, PMK2MCNs_Treatment [33]: 1.062
- HazardRatio, Treatment [33]: 0.808
- HazardRatio, ERCC1_Treatment [34]: 1.170
- HazardRatio, Treatment [34]: 0.689
- HazardRatio, ERCC1_Treatment (ERCC1 model, ADENOCARCINOMA, With selected variables): 1.151
